{"source": "patent US11479604B2", "about": "“Immunomodulatory peptides and methods for modulating the immune system in a subject” (Recepta Biopharma S.A., priority 2017, dated 2022)", "key": {"[1]": {"system": "CD11c+, MHC II+ bone marrow DCs", "assay": "Marker expression of bone marrow DCs with or without Poly I:C (flow cytometry)", "format": "cell-based, C57Bl6 mice", "conditions": "60 h", "description": "DCs were obtained from the bone marrow of 6 to 8-week-old C57Bl6 mice. Briefly, femora and tibiae from mice were removed and stripped of muscles and tendons; both bone ends were cut and bone marrow was flushed out with RPMI 1640 medium using a 21-gauge needle and syringe. Cell clusters were dissociated by passing through a cell strainer and 0.45 M ammonium chloride was added for red cell lysis. After washing the cell suspension twice in RPMI 1640, 10×10^6 bone marrow cells per well were cultured in non-treated tissue-culture 6-well plates with 4 ml of complete medium (RPMI 1640 supplemented with 2 mM glutamine, 10,000 U/mL penicillin, 10 mg/mL streptomycin, 50 μM 2-mercaptoethanol, 10% heat-inactivated fetal calf serum with GM-CSF (50 ng/ml). Half of the medium was removed on day 2 and new medium supplemented with GM-CSF (100 ng/ml) and warmed at 37° C. was added. The culture medium was entirely discarded on day 3 and replaced by fresh warmed medium with GM-CSF (50 ng/ml). On day 6, non-adherent cells in the culture supernatant and loosely adherent cells harvested by gentle washing with PBS were pooled and used as the starting cell source for the experiments.\nFor murine cell analysis, these were stained in ice-cold PBS containing BSA (0.5%) and EDTA (2 mM) using appropriate antibody-fluorophore conjugates. Multiparameter analysis was performed on a BD FACSCanto II analyzer (BD Biosciences) and analyzed with FlowJo software (Tree Star). The following antibodies were used: anti-MHC Class II, anti-CD11c, anti-CD8a, anti-CD3e, anti-CD4, anti-CD86, anti-CD40, anti-CD80, Prior to acquisition, cells were resuspended in PBS/BSA 0.5%/EDTA (2 mM).\nDCs were centrifuged and washed once with MACS buffer. Cells (10^6) were resuspended in 45 μl of buffer and 5 μl of antibodies/fluorophore, CD11c APC, MHC II PE, CD80 FITC, CD86 VioBlue and CD40 PE. The samples were acquired in BD FACS Canto II using the FacsDiva software. The data were analyzed by using the FlowJo software."}, "[2]": {"system": "B16F10-Nex2 melanoma cells", "assay": "Syngeneic metastatic melanoma model, lung nodule count", "format": "in vivo, C57BL/6 mice", "conditions": "for activity against metastatic melanoma of scramble peptides: 300 μg (10 mg/kg) i.p., alternate days, 5 doses, lungs after 14 days; for antitumor activity (pulmonary nodules): alone, Rb9 300 μg 5 consecutive days, Imiquimod 50 μg 3 alternate days, CpG and Poly (I:C) two alternate days", "description": "Male C57BL/6 mice, 6 to 8-week-old were obtained from the Center for Development of Experimental Models (CEDEME), Federal University of Sao Paulo (UNIFESP). For the in vivo metastatic model, C57BL/6 mice received one intravenous (i.v.) injection of 2×10^5 viable B16-F10-Next melanoma cells in 100 μL. […] The control group received 100 μL PBS. Twenty-two days later, mice (minimum n=3 per group) had their lungs harvested, and the number of macroscopic melanotic nodules were counted. The Ethical Committee of Federal University of São Paulo, Project no. 1234, 2011, approved all experiments with animals, according to International guidelines. For the subcutaneous model, mice were injected with 5×10^5 tumor cells suspended in 100 μL of PBS in the right flank via the subcutaneous route. The peptide (300 μg) was solubilized in 10 μL of distilled H2O and 90 μL of PBS and injected per mouse via the intraperitoneal route. The administration of the peptide was performed in 5 alternate days initiating one day after tumor challenge. Tumor longitudinal diameter (D) and transverse diameter (d) were measured every 2 days until the tumor volume reached 3,000 mm3. Animals were sacrificed when the allowed volume was reached. Volume was calculated using the formula v=Dd^2×0.52. Tumor Cell Growth In Vitro and In Vivo Details of the in vitro tumor cell growth, cytotoxicity tests, determination of viable cells and in vivo protection experiments with B16F10 cells in a mouse metastatic model are described in Polonelli et al. (PLoS One. 3(6):e2371, 2008) and Dobroff et al. (Transl. Onc., 3: 204-217, 2010).\n6 to 8 Week-old C57BL/6 mice (n=5, per group) were intravenously challenged with 1×10^5 of syngeneic B16F10-Nex2 viable cells in 0.1 mL of RPMI medium without FBS, and treated on the next day with intraperitoneal doses of 300 μg (10 mg/kg) each, of Scr1, Scr2, Scr3 or Scr4 peptide or with the control vehicle (PBS) in alternate days, total of 5 doses. After 14 days, mice were euthanized, and lungs were harvested and assessed for metastatic colonization. The number of metastatic lesions was quantified using a stereo microscope (Nikon, Tokyo). The percentage of the tumor area/total area was also quantified by ImageJ software.\nB16F10-Nex2 tumor cells (2×10^5) in RPMI (100 μl) were injected in both animal groups in the tail veins on day 0. Animals were sacrificed on day 22, or 10 days after the last administration of the peptide, and their lungs were examined for dark melanotic nodules.\nC57Bl6 mice were intravenously challenged with 4×10^5 syngeneic B16F10-Nex2 cells in 0.1 ml of RPMI without FBS.\nMice were injected with 5×10^5 B16F10-Nex2 cells i.v. suspended in 100 μl PBS. […] Imiquimod at 50 μg/100 μl was injected i.p. in 3 alternate days; CpG ODN 1585, i.p., in two alternate days; and Poly (I:C), i.p., in two alternate days. After 15 days of tumor challenge, the animals were sacrificed, the lungs were removed and the pulmonary nodules were counted."}, "[3]": {"system": "colorectal CT26 carcinoma cells", "assay": "Subcutaneous syngeneic colorectal carcinoma model", "format": "in vivo, Balb/c mice"}, "[4]": {"system": "B16F10-Nex2 melanoma cells", "assay": "Prophylactic adoptive transfer of peptide-stimulated dendritic cells, metastatic melanoma", "format": "in vivo, syngeneic mice", "conditions": "DCs incubated with 50 μg/ml peptide, with or without tumor cell lysate; s.c.; tumor challenge day 14, count day 29", "description": "DCs were obtained from the bone marrow of 6 to 8-week-old C57Bl6 mice. Briefly, femora and tibiae from mice were removed and stripped of muscles and tendons; both bone ends were cut, and bone marrow was extracted by placing the bone pieces into 1-ml tips, which in turn were inserted into 15-ml tubes and centrifuged for 10 minutes at 1500 rpm. Cells were resuspended in DMEM and cell clusters were dissociated by repeated pipetting. The total bone marrow cells were cultured in 100-mm treated tissue culture dish in 10 ml of R10 medium (DMEM medium supplemented with 2 mM glutamine, 10,000 U/ml penicillin, 10 mg/ml streptomycin, 50 μM 2-mercaptoethanol, 1 mM sodium pyruvate, MEM-nonessential aminoacids, MEM Vitamin solution, 10% heat-inactivated fetal bovine serum and GM-CSF (20 ng/ml) and IL-4 (40 ng/ml). Fresh medium (3 ml) with GM-CSF (200 ng/ml) and IL-4 (400 ng/ml) was added every 3 days. On day 7, adherent cells, that were harvested using PBS 2 mM EDTA, together with the non-adherent cells were pooled and used as the starting cell source for the experiments. BMDC Protocol 2\nDCs were inoculated s.c. in syngeneic mice. On day 14, mice were inoculated i.v. with melanoma tumor cells (5×10^5 cells) and on day 29, the lung melanotic nodules were counted."}, "[5]": {"system": "T lymphocytes of lungs, spleen and lymph nodes", "assay": "Flow cytometry of Treg, T-CD4+ and T-CD8+ cells after prophylactic DC protocol", "format": "in vivo, mice", "conditions": "spleen and lymph nodes (except lungs), day 29, DCs stimulated by peptide", "description": "On day 14, mice were inoculated i.v. with B16F10.Nex2 melanoma tumor cells and on day 29, lungs, spleen and cervical and axillary lymph nodes were examined for CD3+ cells, and the proportion of T-CD4+ and T-CD8+ cells.\nThe lungs were incubated with 2 mg/ml of collagenase for 40 min at 37° C. before maceration. The cell suspension was incubated with cold hemolytic buffer for 1 min and then centrifuged. The pellet was suspended with RPMI medium and counted. 1×10^6 Cells of each group were processed and stained using the Treg Detection Kit (Miltenyi Biotec, Cambridge, USA). Lymphocytes were characterized using anti-CD4 (FITC), anti-CD25 (PE) and anti-Foxp3 (APC). Samples were analyzed by flow cytometry using FACSCantoII (Becton Dickinson, San Jose, Calif., USA). Acquired data were analyzed using the FlowJo V10 (TreeStar Inc., Ashland, Oreg., USA). The percentages of Foxp3^+ in CD4^+CD25^+ lymphocytes are indicated.\nThe cell suspension was incubated with cold hemolytic buffer for 1 min and then centrifuged. The pellet was suspended with RPMI medium and counted. 1×10^6 Cells of each group were stained with anti-CD3 (PE) and anti-CD4 (FITC) or anti-CD3 (PE) and anti-CD8 (FITC). All antibodies used were purchase from Miltenyi Biotec, Cambridge, USA. Samples were analyzed by flow cytometry using FACSCantoII (Becton Dickinson, San Jose, Calif., USA). Acquired data were analyzed using the FlowJo V10 (TreeStar Inc., Ashland, Oreg., USA). The percentages of CD4^+ or CD8^+ in CD3^+ lymphocytes are indicated."}, "splenocytes": {"system": "splenocytes", "assay": "Splenocyte cytokine production in melanoma-bearing treated mice (ELISA)", "format": "in vivo", "conditions": "300 μg i.p. 5 consecutive days", "description": "Mice were challenged with 5×10^5 B16F10-Nex2 cells via the i.v. route. […] Peptides at 300 μg solubilized in 10 μl distilled H2O and 90 μl of PBS were injected via i.p. route per animal, for 5 consecutive days initiating one day after tumor cell challenge. Seventeen days after tumor challenge mice were sacrificed and spleens were removed. Splenocytes after incubation in hemolysis buffer were suspended in R10 medium and plated in 6-well plates and 10^6 cells/well. Cells were incubated for 72 h with or without tumor cell lysate (from 10^5 B16F10-Nex2 cells) in triplicate. The supernatants were collected, and cytokines measured by ELISA (FIG. 11)."}, "CD11c+ cells": {"system": "CD11c+ cells", "assay": "TGF-beta1 ELISA of CD11c+ cells from lymphoid organs of melanoma-bearing treated mice", "format": "in vivo, C57Bl6 mice", "conditions": "300 μg/dose i.p., day 17", "description": "Animals were sacrificed on day 17 and their lungs, cervical and axillary lymph nodes and spleen were processed for examination. Lymph nodes and spleen were macerated separately, DMEM was added and passed through a cell strainer. CD11c+ cells were isolated using mouse CD11c+ beads and magnetic sorting. Cells were suspended in R10 medium and plated in […] at 10^6 cells/well. Cells were incubated for 24 h with or without tumor cell lysate (B16F10 stimulus). The supernatant was used in a TGF-beta1 ELISA test."}, "[6]": {"system": "LPS stimulated DCs characterized by CD11c+ MHC-II+", "assay": "Co-stimulatory markers of LPS stimulated murine bone-marrow DCs", "format": "cell-based", "from_the_text": "Rb9 immunomodulation of murine bone-marrow dendritic cells (DCs) was also examined focusing on co-stimulatory markers."}, "[7]": {"conditions": "100 μg/ml peptide + 12.5 μg/ml Poly I:C"}}, "note": "Positions of bridges follow the written chain, without caps; N, C: chain ends. No end group written: not given here.", "data": [{"molecule": "[RATFAYWG], NH2 [Rb9-MID]", "values": [{"measurement": "CD40 expression over Poly I:C", "setting": "[1]; [7]", "value": "stimulated CD40 over Poly I:C much like Rb9"}, {"measurement": "expression of MHC II over Poly I:C and Rb9", "setting": "[1]; [7]", "value": "significantly increased"}, {"measurement": "expression of CD80", "setting": "[1]; 100 μg/ml peptide, with or without Poly I:C", "value": "similar"}]}, {"molecule": "[CETWRGAATRGAFQAYGC], NH2 (C-C) (CETWRGAATRGAFQAYGC-NH2; disulfide 1-18 (inferred)) [Scr3, cyclic scramble peptide of Rb9]", "values": [{"measurement": "activity against metastatic melanoma of scramble peptides", "setting": "[2]", "value": "good negative control"}]}, {"molecule": "[CAEATYWRRGGQAAGFTC], NH2 (C-C) (CAEATYWRRGGQAAGFTC-NH2; disulfide 1-18 (inferred)) [Scr1, cyclic scramble peptide of Rb9]", "values": [{"measurement": "activity against metastatic melanoma of scramble peptides", "setting": "[2]", "value": "activity similar to Rb9"}]}, {"molecule": "Poly I:C [reference compound]", "values": [{"measurement": "antitumor activity (pulmonary nodules)", "setting": "[2]; i.p., 15 days after challenge", "value": "strongly active"}, {"measurement": "antitumor activity of Poly I:C combined with Rb9", "setting": "[2]; i.p., 15 days after challenge", "value": "strongly active"}]}, {"molecule": "[CARGETARATFAYWGQG], NH2 (CARGETARATFAYWGQG-NH2) [Rb10, linear peptide lacking terminal cysteine]", "values": [{"measurement": "subcutaneous tumor growth", "setting": "[3]; CT26 cells of high virulence (Argentina cell line), 5 alternate days", "value": "delayed"}, {"measurement": "survival time", "setting": "[3]; CT26 cells of high virulence, H-2^d syngeneic animals", "value": "prolonging the survival time"}]}, {"molecule": "[AARGETARATFAYWGQG], NH2 [Rb10A1]", "values": [{"measurement": "protective effect of peptide-stimulated DCs (lung melanotic nodules)", "setting": "[4]", "value": "also protective against melanoma in the metastatic model but less effectively than Rb9"}, {"measurement": "proportion of T-CD8+ to T-CD4+ cells", "setting": "[5]", "value": "T-CD8+ cells greatly predominated over T-CD4+ effector cells"}, {"measurement": "cytokine production in splenocytes (generally)", "setting": "splenocytes", "value": "downregulated"}, {"measurement": "IL-12 production in splenocytes", "setting": "splenocytes; no stimulus necessary", "value": "comparable in the three groups"}, {"measurement": "TGF-beta in tumor-lysate stimulated CD11c+ cells from the spleen", "setting": "CD11c+ cells", "value": "markedly inhibited"}, {"measurement": "TGF-beta secreted by lymph node CD11c+ cells", "setting": "CD11c+ cells; vs vehicle (PBS) control cells stimulated by melanoma lysate", "value": "fully inhibited"}, {"measurement": "CD40 expression", "setting": "[6]", "value": "regulated CD40 expression"}, {"measurement": "expression of CD80 and CD86", "setting": "[6]; Rb9 mainly at 50 μg/ml", "value": "significantly stimulated"}]}, {"molecule": "CC(C)Cn1cnc2c(N)nc3ccccc3c21", "note": "[Imiquimod, reference compound]", "values": [{"measurement": "antitumor activity (pulmonary nodules)", "setting": "[2]; i.p., 15 days after challenge", "value": "Antitumor activities of Rb9 and Imiquimod were the same"}]}]}
